Results on 22 compounds are retold here after patent publication US20190047966A1, “NOVEL COMPOUND AND PHARMACOLOGICALLY ACCEPTABLE SALT THEREOF” (MEIJI SEIKA PHARMA CO., LTD., priority 2016, published 2019).

Assay [1] addresses T1, human histamine H4 receptor (Homo sapiens, UniProt Q9H3N8).
T1 construct: purchased PerkinElmer Inc; host or cells: CHO-K1
Kind of assay: Evaluation of Human H4 Receptor Affinity ([3H]histamine binding). The following applies: inhibition constant Ki, CHO-K1 membrane preparation, read-out: Evaluation of H4 Receptor Affinity. Summed up:
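Radioligand displacement: compound competes with 8.2 nM [3H]histamine at recombinant human H4 receptor in CHO-K1 membranes (Tris-HCl 50 mM pH 7.4, EDTA 1.25 mM; 25 °C, 90 min), with filter-bound radioactivity counted. IC50 was converted to Ki via Cheng-Prusoff (Kd 5.7 nM); 1.0 μM histamine set nonspecific binding.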

The target in assay [2] is human histamine H1 receptor (Homo sapiens, UniProt P35367). Nature of the assay: Evaluation of Human H1 Receptor Affinity ([3H]pyrilamine binding). Details: purchased PerkinElmer Inc; host or cells: CHO-K1. The following applies: inhibition constant Ki, CHO-K1 membrane preparation. The method in brief: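 Ki values are Cheng-Prusoff conversions of IC50 (Kd 1.1 nM) from radioligand displacement of 1.2 nM [3H]pyrilamine, with 1.0 μM pyrilamine defining nonspecific binding.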

pKi: −log10 of the molar value. Counter-ions that a name gives are not always drawn. Some results are limits rather than exact numbers.

T1 sequence (Q9H3N8 whole entry): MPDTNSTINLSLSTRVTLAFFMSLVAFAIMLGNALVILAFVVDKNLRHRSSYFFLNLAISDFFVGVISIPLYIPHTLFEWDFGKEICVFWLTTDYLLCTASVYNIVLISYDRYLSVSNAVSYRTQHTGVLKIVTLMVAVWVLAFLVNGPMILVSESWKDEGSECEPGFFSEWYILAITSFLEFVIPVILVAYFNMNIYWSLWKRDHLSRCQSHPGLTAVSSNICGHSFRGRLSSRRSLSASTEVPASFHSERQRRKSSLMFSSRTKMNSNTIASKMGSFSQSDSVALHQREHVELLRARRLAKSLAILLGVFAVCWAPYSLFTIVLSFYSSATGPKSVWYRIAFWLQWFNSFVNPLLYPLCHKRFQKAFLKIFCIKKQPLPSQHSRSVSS
Sequence of human histamine H1 receptor (P35367 whole entry): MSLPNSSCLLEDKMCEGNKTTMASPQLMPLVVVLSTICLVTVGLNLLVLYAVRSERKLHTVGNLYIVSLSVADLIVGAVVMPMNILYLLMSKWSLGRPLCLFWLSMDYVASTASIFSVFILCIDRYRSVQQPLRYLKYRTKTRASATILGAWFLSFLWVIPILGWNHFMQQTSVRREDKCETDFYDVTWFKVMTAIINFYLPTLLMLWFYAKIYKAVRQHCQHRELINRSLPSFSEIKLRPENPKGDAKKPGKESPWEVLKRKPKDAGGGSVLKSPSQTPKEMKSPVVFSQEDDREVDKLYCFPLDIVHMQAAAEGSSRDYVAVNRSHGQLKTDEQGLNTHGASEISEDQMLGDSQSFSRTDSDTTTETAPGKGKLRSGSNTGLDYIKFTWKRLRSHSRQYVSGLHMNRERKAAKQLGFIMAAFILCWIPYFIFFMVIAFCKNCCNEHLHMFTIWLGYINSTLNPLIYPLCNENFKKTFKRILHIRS

As to `Nc1nc2c(c(N3CCN(CCCCOC4CC(C(=O)O)C4)CC3)n1)CCc1cc(OCc3ccc(Cl)cc3)ccc1-2` (centres unmarked) [Example 141, 3-(4-(4-(2-amino-8-((4-chlorobenzyl)oxy)-5,6-dihydrobenzo[h]quinazolin-4-yl)piperazin-1-yl)butoxy)cyclobutane-1-carboxylic acid dihydrochloride], the pKi was 6.30 to 7.00 in assay [1] and over 7.00 in assay [2].

`Nc1nc2c(c(N3CCN(CCOCc4nc(C(=O)O)cs4)CC3)n1)CCc1cc(OCc3ccc(OC(F)(F)F)cc3)ccc1-2` [Example 142, 2-((2-(4-(2-amino-8-((4-(trifluoromethoxy)benzyl)oxy)-5,6-dihydrobenzo[h]quinazolin-4-yl)piperazin-1-yl)ethoxy)methyl)thiazole-4-carboxylic acid dihydrochloride]: the pKi in assay [1] and in assay [2] was over 7.00 each time.

With `Nc1nc2c(c(N3CCN(CCCOCc4nnn[nH]4)CC3)n1)CCc1cc(OCc3ccc(Cl)cc3)ccc1-2` [Example 144, 4-(4-(3-((tetrazol-5-yl)methoxy)propyl)piperazin-1-yl)-8-((4-chlorobenzyl)oxy)-5,6-dihydrobenzo[h]quinazolin-2-amine bis(trifluoroacetate)], the pKi in assay [1] and in assay [2] was over 7.00 in each case.

Regarding `Nc1nc2c(c(N3CCN(CCCCOCc4nnn[nH]4)CC3)n1)CCc1cc(OCc3ccc(Cl)cc3)ccc1-2` [Example 145, 4-(4-(4-((tetrazol-5-yl)methoxy)butyl)piperazin-1-yl)-8-((4-chlorobenzyl)oxy)-5,6-dihydrobenzo[h]quinazolin-2-amine bis(trifluoroacetate)], the pKi in assay [1] and in assay [2] was over 7.00 each time.

`Nc1nc2c(c(N3CCN(CCO[C@H]4C[C@@H]5[C@H](C4)[C@H]5C(=O)O)CC3)n1)CCc1cc(OCc3ccc(OC(F)(F)F)cc3)ccc1-2` [Example 146, (1R,3r,5S,6r)-3-(2-(4-(2-amino-8-((4-(trifluoromethoxy)benzyl)oxy)-5,6-dihydrobenzo[h]quinazolin-4-yl)piperazin-1-yl)ethoxy)bicyclo[3.1.0]hexane-6-carboxylic acid]: the figures for the pKi in assay [1] and in assay [2] were 6.30 to 7.00 and over 7.00, respectively.

With `Nc1nc2c(c(N3CCN(CCO[C@@H]4C[C@@H]5[C@H](C4)[C@H]5C(=O)O)CC3)n1)CCc1cc(OCc3ccc(OC(F)(F)F)cc3)ccc1-2` [Example 147, (1R,3s,55,6r)-3-(2-(4-(2-amino-8-((4-(trifluoromethoxy)benzyl)oxy)-5,6-dihydrobenzo[h]quinazolin-4-yl)piperazin-1-yl)ethoxy)bicyclo[3.1.0]hexane-6-carboxylic acid], the pKi in assay [1] and in assay [2] was over 7.00 in each case.

For `Nc1nc2c(c(N3CCN(CCO[C@@H]4C[C@@H]5[C@H](C4)[C@@H]5C(=O)O)CC3)n1)CCc1cc(OCc3ccc(OC(F)(F)F)cc3)ccc1-2` [Example 148, (1R,3s,5S,6s)-3-(2-(4-(2-amino-8-((4-(trifluoromethoxy)benzyl)oxy)-5,6-dihydrobenzo[h]quinazolin-4-yl)piperazin-1-yl)ethoxy)bicyclo[3.1.0]hexane-6-carboxylic acid], the pKi was 6.30 to 7.00 in assay [1] and over 7.00 in assay [2].

For `COC(=O)CC1CN(C(=O)OCCN2CCN(c3nc(N)nc4c3CCc3cc(OCc5ccc(Cl)cc5)ccc3-4)CC2)C1` [Example 149, 2-(4-(2-amino-8-((4-chlorobenzyl)oxy)-5,6-dihydrobenzo[h]quinazolin-4-yl)piperazin-1-yl)ethyl 3-(2-methoxy-2-oxoethyl)azetidine-1-carboxylate], the figures for the pKi in assay [1] and in assay [2] were 6.30 to 7.00 and over 7.00, respectively.

On to `COC(=O)C1CN(C(=O)OCCN2CCN(c3nc(N)nc4c3CCc3cc(OCc5ccc(Cl)cc5)ccc3-4)CC2)C1` [Example 150, 1-(2-(4-(2-amino-8-((4-chlorobenzyl)oxy)-5,6-dihydrobenzo[h]quinazolin-4-yl)piperazin-1-yl)ethyl) 3-methyl azetidine-1,3-dicarboxylate], for which the pKi in assay [1] was 6.30 to 7.00; in assay [2], over 7.00.

On to `Nc1nc2c(c(N3CCN(CCOCC45C6C7C4C4C5C6C74C(=O)O)CC3)n1)CCc1cc(OCc3ccc(Cl)cc3)ccc1-2` (centres unmarked) [Example 151, 4-((2-(4-(2-amino-8-((4-chlorobenzyl)oxy)-5,6-dihydrobenzo[h]quinazolin-4-yl)piperazin-1-yl)ethoxy)methyl)pentacyclo[4.2.0.0^2.5.0^3.8.0^4.7]octane-1-carboxylic acid dihydrochloride], for which the pKi in assay [1] and in assay [2] was over 7.00 each time.

On to `Nc1nc2c(c(N3CCN(CCOC4CC4C(=O)O)CC3)n1)CCc1cc(OCc3ccc(Cl)cc3)ccc1-2` (centres unmarked) [Example 154, 2-(2-(4-(2-amino-8-((4-chlorobenzyl)oxy)-5,6-dihydrobenzo[h]quinazolin-4-yl)piperazin-1-yl)ethoxy)cyclopropane-1-carboxylic acid], for which the figures for the pKi in assay [1] and in assay [2] were 6.30 to 7.00 and over 7.00, respectively.

For the compound `Cn1cc(COCCN2CCN(c3nc(N)nc4c3CCc3cc(OCc5ccc(Cl)cc5)ccc3-4)CC2)cc1C(=O)O` [Example 156, 4-((2-(4-(2-amino-8-((4-chlorobenzyl)oxy)-5,6-dihydrobenzo[h]quinazolin-4-yl)piperazin-1-yl)ethoxy)methyl)-1-methyl-1H-pyrrole-2-carboxylic acid hydrochloride], the pKi in assay [1] and in assay [2] was over 7.00 each time.

In the case of `Nc1nc2c(c(N3CCN(CCOC45CCC(C(=O)O)(CC4)CC5)CC3)n1)CCc1cc(OCc3ccc(Cl)cc3)ccc1-2` [Example 157, 4-(2-(4-(2-amino-8-((4-chlorobenzyl)oxy)-5,6-dihydrobenzo[h]quinazolin-4-yl)piperazin-1-yl)ethoxy)bicyclo[2.2.2]octane-1-carboxylic acid hydrochloride], the pKi in assay [1] and in assay [2] was over 7.00 throughout.

Consider `CC12CCC(C(=O)O)(CC1OCCN1CCN(c3nc(N)nc4c3CCc3cc(OCc5ccc(Cl)cc5)ccc3-4)CC1)C2(C)C` (centres unmarked) [Example 158, 3-(2-(4-(2-amino-8-((4-chlorobenzyl)oxy)-5,6-dihydrobenzo[h]quinazolin-4-yl)piperazin-1-yl)ethoxy)-4,7,7-trimethylbicyclo[2.2.1]heptane-1-carboxylic acid hydrochloride], for which the pKi in assay [1] is 6.30 to 7.00; in assay [2], over 7.00.

As for `CC1(C(=O)O)CCC(OCCN2CCN(c3nc(N)nc4c3CCc3cc(OCc5ccc(Cl)cc5)ccc3-4)CC2)CC1` (centres unmarked) [Example 161, 4-(2-(4-(2-amino-8-((4-chlorobenzyl)oxy)-5,6-dihydrobenzo[h]quinazolin-4-yl)piperazin-1-yl)ethoxy)-1-methylcyclohexane-1-carboxylic acid], the pKi in assay [1] and in assay [2] was over 7.00 each time.

In the case of `CC(C)(C(=O)O)c1ccc(OCCN2CCN(c3nc(N)nc4c3CCc3cc(OCc5ccc(Cl)cc5)ccc3-4)CC2)cc1` [Example 162, 2-(4-(2-(4-(2-amino-8-((4-chlorobenzyl)oxy)-5,6-dihydrobenzo[h]quinazolin-4-yl)piperazin-1-yl)ethoxy)phenyl)-2-methylpropanoic acid], the pKi in assay [1] and in assay [2] was 6.30 to 7.00 each time.

Take `Nc1nc2c(c(N3CCN(CCOCC4(CCC(=O)O)COC4)CC3)n1)CCc1cc(OCc3ccc(Cl)cc3)ccc1-2` [Example 163, 3-(3-((2-(4-(2-amino-8-((4-chlorobenzyl)oxy)-5,6-dihydrobenzo[h]quinazolin-4-yl)piperazin-1-yl)ethoxy)methyl)oxetan-3-yl)propanoic acid]: the pKi in assay [1] and in assay [2] was over 7.00 throughout.

For `CC1(COCCN2CCN(c3nc(N)nc4c3CCc3cc(OCc5ccc(Cl)cc5)ccc3-4)CC2)CCC(C(=O)O)CC1` (stereo not drawn) [Example 164, cis- or trans-4-((2-(4-(2-amino-8-((4-chlorobenzyl)oxy)-5,6-dihydrobenzo[h]quinazolin-4-yl)piperazin-1-yl)ethoxy)methyl)-4-methylcyclohexane-1-carboxylic acid], the pKi in assay [1] and in assay [2] was over 7.00 throughout.

As for `CC1(C(=O)O)CCC(COCCN2CCN(c3nc(N)nc4c3CCc3cc(OCc5ccc(Cl)cc5)ccc3-4)CC2)CC1` (stereo not drawn) [Example 165, trans- or cis-4-((2-(4-(2-amino-8-((4-chlorobenzyl)oxy)-5,6-dihydrobenzo[h]quinazolin-4-yl)piperazin-1-yl)ethoxy)methyl)-1-methylcyclohexane-1-carboxylic acid], the pKi in assay [1] and in assay [2] was over 7.00 each time.

`Nc1nc2c(c(N3CCN(CCOCCOCC4(C(=O)O)COC4)CC3)n1)CCc1cc(OCc3ccc(Cl)cc3)ccc1-2` [Example 168, 3-((2-(2-(4-(2-amino-8-((4-chlorobenzyl)oxy)-5,6-dihydrobenzo[h]quinazolin-4-yl)piperazin-1-yl)ethoxy)ethoxy)methyl)oxetane-3-carboxylic acid]: the pKi is 6.30 to 7.00 in assay [1] and over 7.00 in assay [2].

With `Nc1nc2c(c(N3CCN(CCOCC4CC(C(=O)O)C4)CC3)n1)CCc1cc(OCc3ccc(Cl)cc3)ccc1-2` (stereo not drawn) [Example 169, cis- or trans-3-((2-(4-(2-amino-8-((4-chlorobenzyl)oxy)-5,6-dihydrobenzo[h]quinazolin-4-yl)piperazin-1-yl)ethoxy)methyl)cyclobutane-1-carboxylic acid], the pKi in assay [1] is 6.30 to 7.00; in assay [2], over 7.00.

Take `Nc1nc2c(c(N3CCN(CCOCC4CC(C(=O)O)C4)CC3)n1)CCc1cc(OCc3ccc(Cl)cc3)ccc1-2` (stereo not drawn) [Example 170, trans- or cis-3-((2-(4-(2-amino-8-((4-chlorobenzyl)oxy)-5,6-dihydrobenzo[h]quinazolin-4-yl)piperazin-1-yl)ethoxy)methyl)cyclobutane-1-carboxylic acid]: the pKi in assay [1] and in assay [2] was over 7.00 throughout.
